Test results as given in US7115740B2, “Pyrimido compounds having antiproliferative activity” (Hoffmann-la Roche Inc., priority 2003, dated 2006).

Row | SMILES | melting point [°C]
1 | COc1ccc(N2Cc3cnc(Nc4ccc(F)cc4)nc3N([C@@H](C)CO)C2=O)c(F)c1 [Example 21b, (S)-(+)-3-(2-fluoro-4-methoxy-phenyl)-7-(4-fluoro-phenylamino)-1-(2-hydroxy-1-methyl-ethyl)-3,4-dihydro-1H-pyrimido[4,5-d]pyrimidin-2-one] | 173 to 177
2 | COc1ccc(N2Cc3cnc(Nc4ccccc4)nc3N(C[C@H](C)O)C2=O)cc1 [Example 31d, (S)-(+)-1-(2-hydroxy-propyl)-3-(4-methoxy-phenyl)-7-phenylamino-3,4-dihydro-1H-pyrimido[4,5-d]pyrimidin-2-one] | 188 to 193
3 | COc1ccc(N2Cc3cnc(Nc4ccccc4)nc3N(C[C@@H](C)O)C2=O)cc1 [Example 28d, (R)-(−)-1-(2-hydroxy-propyl)-3-(4-methoxy-phenyl)-7-phenylamino-3,4-dihydro-1H-pyrimido[4,5-d]pyrimidin-2-one] | 189 to 193
4 | COc1ccc(N2Cc3cnc(Nc4ccccc4)nc3N([C@@H](C)CO)C2=O)cc1 [Example 15d, (S)-(+)-1-(2-hydroxy-1-methyl-ethyl)-3-(4-methoxy-phenyl)-7-phenylamino-3,4-dihydro-1H-pyrimido[4,5-d]pyrimidin-2-one] | 140 to 147
5 | COc1ccc(N2Cc3cnc(Nc4ccccc4)nc3N([C@H](C)CO)C2=O)cc1 [Example 23d, (R)-(−)-1-(2-hydroxy-1-methyl-ethyl)-3-(4-methoxy-phenyl)-7-phenylamino-3,4-dihydro-1H-pyrimido[4,5-d]pyrimidin-2-one] | 156 to 163
